According to ChEMBL document CHEMBL4359901, “Cyclic enaminone as new chemotype for selective cyclooxygenase-2 inhibitory, anti-inflammatory, and analgesic activities” (Eur J Med Chem, 2019):

Tests used:
[1] = Selectivity index, ratio of IC50 for inhibition of ovine COX1 to IC50 for inhibition of recombinant human COX2
[2] = system: Rattus norvegicus; test: Antiinflammatory activity in Wistar albino rat assessed as reduction in carrageenan-induced paw edema at 25 mg/kg, ip measured after 1 hr by plethysmometric method (reference value: 1.43 +/- 0.19 ml); assay type: functional
[3] = system: Rattus norvegicus; test: Antiinflammatory activity in Wistar albino rat assessed as reduction in carrageenan-induced paw edema at 25 mg/kg, ip measured after 3 hrs by plethysmometric method (reference value: 1.75 +/- 0.33 ml); assay type: functional
[4] = system: Rattus norvegicus; test: Analgesic activity in Wistar albino rat assessed as reaction time at 25 mg/kg, ip measured after 60 mins for 15 secs by hot plate method (reference value: 4.67 +/- 0.52 sec); assay type: functional
[5] = system: Rattus norvegicus; test: Analgesic activity in Wistar albino rat assessed as reaction time at 25 mg/kg, ip measured after 120 mins for 15 secs by hot plate method (reference value: 4.32 +/- 0.52 sec); assay type: functional
[6] = system: Rattus norvegicus; test: Analgesic activity in Wistar albino rat assessed as reaction time at 25 mg/kg, ip measured after 180 mins for 15 secs by hot plate method (reference value: 3.87 +/- 0.38 sec); assay type: functional
[7] = system: Rattus norvegicus; test: Analgesic activity in Wistar albino rat assessed as reaction time at 12.5 mg/kg, ip measured after 30 mins for 15 secs by hot plate method (reference value: 4.21 +/- 0.41 sec); assay type: functional
[8] = system: Rattus norvegicus; test: Analgesic activity in Wistar albino rat assessed as reaction time at 12.5 mg/kg, ip measured after 180 mins for 15 secs by hot plate method (reference value: 3.87 +/- 0.38 sec); assay type: functional
[9] = system: Rattus norvegicus; test: Antiinflammatory activity in Sprague-Dawley rat model of carrageenan-induced thermal hyperalgesia assessed as paw withdrawal latency time at 50 mg/kg, po administered 1 hr prior to carrageenan challenge and measured after 2 hrs by planter test (reference value: 6.17 +/- 0.58 sec); assay type: functional
[10] = system: Rattus norvegicus; test: Antiinflammatory activity in Sprague-Dawley rat model of carrageenan-induced thermal hyperalgesia assessed as paw withdrawal latency time at 30 mg/kg, po administered 1 hr prior to carrageenan challenge and measured after 4 hrs by planter test (reference value: 5.47 +/- 0.84 sec); assay type: functional
[11] = system: Rattus norvegicus; test: Antiinflammatory activity in Sprague-Dawley rat model of carrageenan-induced thermal hyperalgesia assessed as paw withdrawal latency time at 50 mg/kg, po administered 1 hr prior to carrageenan challenge and measured after 5 hrs by planter test (reference value: 7.5 +/- 0.74 sec); assay type: functional
[12] = system: Rattus norvegicus; test: Antiinflammatory activity in Sprague-Dawley rat model of carrageenan-induced thermal hyperalgesia assessed as paw withdrawal latency pressure at 30 mg/kg, po administered 1 hr prior to carrageenan challenge and measured after 1 hr by Von-frey test (reference value: 159.88 +/- 4.66 g); assay type: functional
[13] = system: Rattus norvegicus; test: Antiinflammatory activity in Sprague-Dawley rat model of carrageenan-induced thermal hyperalgesia assessed as paw withdrawal latency pressure at 30 mg/kg, po administered 1 hr prior to carrageenan challenge and measured after 2 hrs by Von-frey test (reference value: 146.47 +/- 5.12 g); assay type: functional
[14] = system: Rattus norvegicus; test: Antiinflammatory activity in Sprague-Dawley rat model of carrageenan-induced thermal hyperalgesia assessed as paw withdrawal latency pressure at 50 mg/kg, po administered 1 hr prior to carrageenan challenge and measured after 2 hrs by Von-frey test (reference value: 146.47 +/- 5.12 g); assay type: functional
[15] = system: Rattus norvegicus; test: Antiinflammatory activity in Sprague-Dawley rat model of carrageenan-induced thermal hyperalgesia assessed as paw withdrawal latency pressure at 30 mg/kg, po administered 1 hr prior to carrageenan challenge and measured after 3 hrs by Von-frey test (reference value: 31.65 +/- 3.33 g); assay type: functional
[16] = system: Rattus norvegicus; test: Antiinflammatory activity in Sprague-Dawley rat model of carrageenan-induced thermal hyperalgesia assessed as paw withdrawal latency pressure at 50 mg/kg, po administered 1 hr prior to carrageenan challenge and measured after 3 hrs by Von-frey test (reference value: 31.65 +/- 3.33 g); assay type: functional
[17] = system: Rattus norvegicus; test: Antiinflammatory activity in Sprague-Dawley rat model of carrageenan-induced thermal hyperalgesia assessed as paw withdrawal latency pressure at 50 mg/kg, po administered 1 hr prior to carrageenan challenge and measured after 5 hrs by Von-frey test (reference value: 169.58 +/- 4.26 g); assay type: functional
[18] = system: Rattus norvegicus; test: Antiinflammatory activity in Sprague-Dawley rat model of carrageenan-induced thermal hyperalgesia assessed as paw withdrawal latency pressure at 30 mg/kg, po administered 1 hr prior to carrageenan challenge and measured after 2 hrs by Randall-Selitto test (reference value: 231.13 +/- 3.15 g); assay type: functional
[19] = system: Rattus norvegicus; test: Antiinflammatory activity in Sprague-Dawley rat model of carrageenan-induced thermal hyperalgesia assessed as paw withdrawal latency pressure at 50 mg/kg, po administered 1 hr prior to carrageenan challenge and measured after 2 hrs by Randall-Selitto test (reference value: 231.13 +/- 3.15 g); assay type: functional
[20] = system: Rattus norvegicus; test: Antiinflammatory activity in Sprague-Dawley rat model of carrageenan-induced thermal hyperalgesia assessed as paw withdrawal latency pressure at 30 mg/kg, po administered 1 hr prior to carrageenan challenge and measured after 4 hrs by Randall-Selitto test (reference value: 200.08 +/- 10.22 g); assay type: functional
[21] = system: Rattus norvegicus; test: Antiinflammatory activity in Sprague-Dawley rat model of carrageenan-induced thermal hyperalgesia assessed as paw withdrawal latency pressure at 50 mg/kg, po administered 1 hr prior to carrageenan challenge and measured after 3 hrs by Randall-Selitto test (reference value: […] g); assay type: functional
[22] = system: Rattus norvegicus; test: Antiinflammatory activity in Sprague-Dawley rat model of carrageenan-induced thermal hyperalgesia assessed as paw withdrawal latency pressure at 30 mg/kg, po administered 1 hr prior to carrageenan challenge and measured after 5 hrs by Randall-Selitto test (reference value: 224.08 +/- 7.12 g); assay type: functional
[23] = system: Rattus norvegicus; test: Antiinflammatory activity in Sprague-Dawley rat model of carrageenan-induced thermal hyperalgesia assessed as paw withdrawal latency pressure at 50 mg/kg, po administered 1 hr prior to carrageenan challenge and measured after 5 hrs by Randall-Selitto test (reference value: 224.08 +/- 7.12 g); assay type: functional
[24] = Antioxidant activity assessed as DPPH radical scavenging activity at 100 uM/ml incubated for 20 mins by spectrophotometric method relative to control; assay type: functional
[25] = Antioxidant activity assessed as DPPH radical scavenging activity incubated for 20 mins by spectrophotometric method; assay type: functional
[26] = Cardiotoxicity in Sprague-Dawley rat assessed as DBP rate at 50 mg/kg; assay type: toxicity, organism-based; settings: in vivo
[27] = system: Rattus norvegicus; test: Antiinflammatory activity in Sprague-Dawley rat model of carrageenan-induced thermal hyperalgesia assessed as paw withdrawal latency pressure at 30 mg/kg, po administered 1 hr prior to carrageenan challenge and measured after 1 hr by Randall-Selitto test (reference value: 246.55 +/- 1.05 g); assay type: functional
[28] = Ulcerogenicity in Sprague-Dawley rat assessed as formation of lesions at 30 mg/kg, po after 1 hr by microscopic analysis; assay type: toxicity, organism-based; settings: in vivo
[29] = target: Prostaglandin G/H synthase 2 (Homo sapiens) (UniProt P35354); test: Inhibition of recombinant human COX2 assessed as reduction in PGF2alpha at 10 uM incubated for 2 mins using arachidonic acid as substrate by ELISA relative to control
Prostaglandin G/H synthase 2 (Homo sapiens), sequence (P35354 whole entry, looked up): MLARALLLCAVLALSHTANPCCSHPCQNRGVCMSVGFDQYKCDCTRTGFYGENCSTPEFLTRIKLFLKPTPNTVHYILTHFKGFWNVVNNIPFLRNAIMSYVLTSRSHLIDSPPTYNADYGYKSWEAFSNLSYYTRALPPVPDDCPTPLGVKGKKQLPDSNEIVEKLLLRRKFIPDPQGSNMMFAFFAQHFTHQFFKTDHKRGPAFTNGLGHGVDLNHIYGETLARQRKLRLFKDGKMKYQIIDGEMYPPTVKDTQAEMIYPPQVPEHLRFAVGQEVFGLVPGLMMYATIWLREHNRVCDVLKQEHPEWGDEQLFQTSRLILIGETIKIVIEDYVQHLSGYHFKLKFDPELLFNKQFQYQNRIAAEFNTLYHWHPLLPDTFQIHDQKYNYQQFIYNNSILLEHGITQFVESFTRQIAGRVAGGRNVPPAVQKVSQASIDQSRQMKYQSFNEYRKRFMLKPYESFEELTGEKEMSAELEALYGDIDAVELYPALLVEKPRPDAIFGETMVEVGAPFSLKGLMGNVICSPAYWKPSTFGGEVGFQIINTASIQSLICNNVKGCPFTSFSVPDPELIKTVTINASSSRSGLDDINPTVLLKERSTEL

In the case of `CC(=O)N(C1=CC(=O)CCC1)c1ccc(Cl)cc1`, the Ratio IC50 [1] is reported as 109, the Activity [2] is reported as 1.25 mL and the Activity [3] is reported as 1.11 mL. For the same molecule, the Time [4] was 7.27 s, the Time [5] was 11.58 s and the Time [6] was 11.88 s. The Time [7] was 6.16 s, the Time [8] was 8.22 s and the Time [9] was 9.67 s. The Time [10] was 6.67 s, the Time [11] was 9.3 s and the Activity [12] was 166.7 g. The Activity [13] was 157.83 g, the Activity [14] was 168.03 g and the Activity [15] was 152.92 g. The Activity [16] was 166.86 g, the Activity [17] was 168.65 g and the Activity [18] was 262.26 g. For the same molecule, the Activity [19] was 268.96 g, the Activity [20] was 258.94 g and the Activity [21] was 265.61 g. The Activity [22] was 264.48 g, the Activity [23] was 266.61 g and the Activity [24] was 96.2%. For the same molecule, the IC50 [25] was 48 µM, the Activity [26] was “Non-Toxic” and the Activity [27] was 261.72 g. The Activity [28] was “Non-Toxic” and the inhibition [29] was 96.9%.
